Source: patent publication US8759535B2, “Substituted fused imidazole derivatives, pharmaceutical compositions, and methods of use thereof” (High Point Pharmaceuticals, LLC, priority 2010, dated 2014)

Test system: HMOX1
Assay: HMOX1 Protein Assay (immunostaining of HO-1 in NHLF cells, GE InCell 1000)
Assay type: cell-based
Settings: Homo sapiens, fold change above DMSO treated cells, 3 μM compound (asterisk), 16 h
Method: Cell Culture. Normal Human Fibroblast (NHLF), were obtained from Lonza. Cultures of cells were maintained in Fibroblast Growth Medium (FGM-2) medium supplemented with 2% fetal bovine serum (FBS), Fibroblast Growth Factor (hFGF-B) 0.5 mL, Insulin 0.5 mL, gentamicin/amphotericin-B 0.5 mL at 37° C. in a humidified atmosphere of 5% CO2. Cells were grown to 80% confluence before treating.
HMOX1 Protein Assay. NHLF cells were grown to 80% confluency and harvested by washing once with HEPES and then trypsinized. Equal numbers (2×10^3 cells per well) of NHLF cells were plated in 384 well optilux tissue culture (BD) plates. Cells were incubated overnight in FGM-2 medium prior to exposure to compound. Cells were treated with either vehicle (DMSO) or compound (dissolved in vehicle) for 16 h. Cells were washed 2× with 1×PBS and fixed with 4% Paraformaldyhyde for 15 min. The fixed cells were then permeabalized with 0.1% Triton X-100 and blocked with 5% BSA in 1×PBS 0.05% Tween-20 for 15 min. HO-1 antibody (abcam) was used for immunostaining at 1:300 dilution in 1% BSA in 1×PBS for 1 hour. Cells were washed 2× with 1×PBS and secondary antibody goat anti-mouse Alexa 488 1:400 dilution (Invitrogen); Hoechst 1:2000 (Invitrogen) in 1% BSA in 1×PBS for 1 hour. Plate was washed 5× with 1×PBS and read at Hoechst Ex.360 […]; Alexa 488 Ex.480 Em. 535 using GE InCell 1000. Results analyzed using GE InCell Analyzer software. Heme oxygenase data represents the fold change above DMSO treated cells.
In general, the fold induction data are reported for 5 μM concentration (i.e., μ-moles of compound to total volume, where the solvent is about 99.2% media and 0.8% DMSO). In some instances, the reported data are for 3 μM concentration, which are indicated by an asterisk (*).

Point of comparison: `CN(C)C(=O)CCNC(=O)c1ccc2c(c1)nc(Nc1nc3ccc(Cl)cc3s1)n2C` [Example 371, 2-(6-Chloro-benzothiazol-2-ylamino)-1-methyl-1H-benzoimidazole-5-carboxylic acid (2-dimethylcarbamoyl-ethyl)-amide], fold induction at 3 µM 29. Against it:
- C[C@@H](NC(=O)c1ccc2c(c1)nc(Nc1nc3ccc(C(F)(F)F)cc3s1)n2C)C(=O)N(C)C [Example 468, 1-Methyl-2-(6-trifluoromethyl-benzothiazol-2-ylamino)-1H-benzoimidazole-5-carboxylic acid ((R)-1-dimethylcarbamoyl-ethyl)-amide] — lower, 26.3
- Cn1c(Nc2nc3ccc(Cl)cc3s2)nc2cc(C(=O)NCCCN3CCCC3)ccc21 [Example 354, 2-(6-Chloro-benzothiazol-2-ylamino)-1-methyl-1H-benzoimidazole-5-carboxylic acid (3-pyrrolidin-1-yl-propyl)-amide] — lower, 17
- Cn1c(Nc2nc3ccc(OC(F)(F)F)cc3s2)nc2cc(C(=O)NCCN3CCS(=O)(=O)CC3)ccc21 [Example 342, 1-Methyl-2-(6-trifluoromethoxy-benzothiazol-2-ylamino)-1H-benzoimidazole-5-carboxylic acid [2-(1,1-dioxo-thiomorpholin-4-yl)-ethyl]-amide] — higher, 36.8
- CC(O)CCNC(=O)c1ccc2c(c1)nc(Nc1nc3ccc(C(F)(F)F)cc3s1)n2C (stereo not drawn) [Example 216, 1-Methyl-2-(6-trifluoromethyl-benzothiazol-2-ylamino)-1H-benzoimidazole-5-carboxylic acid (3-hydroxy-butyl)-amide] — higher, 31.6
- C[C@@H](NC(=O)c1ccc2c(c1)nc(Nc1nc3ccc(C(F)(F)F)cc3s1)n2C)C(=O)N1CCOCC1 [Example 472, 1-Methyl-2-(6-trifluoromethyl-benzothiazol-2-ylamino)-1H-benzoimidazole-5-carboxylic acid ((R)-1-methyl-2-morpholin-4-yl-2-oxo-ethyl)-amide] — lower, 23
- CN1CCN(C(=O)CNC(=O)c2ccc3c(c2)nc(Nc2nc4ccc(C(F)(F)F)cc4s2)n3C)CC1 [Example 427, 1-Methyl-2-(6-trifluoromethyl-benzothiazol-2-ylamino)-1H-benzoimidazole-5-carboxylic acid [2-(4-methyl-piperazin-1-yl)-2-oxo-ethyl]-amide] — lower, 17

Same assay, conditions: Homo sapiens, fold change above DMSO treated cells, 5 μM compound, 16 h

Point of comparison: `Cn1c(Nc2nc3ccc(OC(F)(F)F)cc3s2)nc2cc(C(=O)NCCOC(F)(F)F)ccc21` [Example 44, 1-Methyl-2-(6-trifluoromethoxy-benzothiazol-2-ylamino)-1H-benzoimidazole-5-carboxylic acid (2-trifluoromethoxy-ethyl)-amide], fold induction at 5 µM 12.1. Against it:
- Cn1c(Nc2nc3ccc(OC(F)(F)F)cc3s2)nc2cc(C(=O)NCCOCCOCCO)ccc21 [Example 256, 1-Methyl-2-(6-trifluoromethoxy-benzothiazol-2-ylamino)-1H-benzoimidazole-5-carboxylic acid {2-[2-(2-hydroxy-ethoxy)-ethoxy]-ethyl}-amide] — higher, 48
- CC(O)CNC(=O)c1cc2nc(Nc3nc4ccc(OC(F)(F)F)cc4s3)n(C)c2cc1F (stereo not drawn) [Example 60, 6-Fluoro-1-methyl-2-(6-trifluoromethoxy-benzothiazol-2-ylamino)-1H-benzoimidazole-5-carboxylic acid (2-hydroxy-propyl)-amide] — higher, 39.8
- CCOCCNC(=O)c1ccc2c(c1)nc(Nc1nc3ccc(Cl)cc3s1)n2C [Example 89, 2-(6-Chloro-benzothiazol-2-ylamino)-1-methyl-1H-benzoimidazole-5-carboxylic acid (2-ethoxy-ethyl)-amide] — higher, 23.7
- C[C@H](NC(=O)c1ccc2c(c1)nc(Nc1nc3ccc(OC(F)(F)F)cc3s1)n2C)C(=O)O [Example 146, (S)-2-{[1-Methyl-2-(6-trifluoromethoxy-benzothiazol-2-ylamino)-1H-benzoimidazole-5-carbonyl]-amino}-propionic acid] — lower, 3.7
- COCCNC(=O)c1ccc2c(c1)nc(Nc1nc3ccc(C)cc3s1)n2C [Example 129, 2-(6-Methyl-benzothiazol-2-ylamino)-1-methyl-1H-benzimidazole-5-carboxylic acid (2-methoxy-ethyl)-amide] — higher, 31
- Cn1c(Nc2nc3ccc(OC(F)(F)F)cc3s2)nc2cc(C(=O)NCC(=O)N3CCN(C(=O)OC(C)(C)C)CC3)ccc21 [Example 142, 4-(2-{[1-Methyl-2-(6-trifluoromethoxy-benzothiazol-2-ylamino)-1H-benzimidazole-5-carbonyl]-amino}-acetyl)-piperazine-1-carboxylic acid tert-butyl ester] — higher, 15.2
- Cn1c(Nc2nc3ccc(OC(F)(F)F)cc3s2)nc2cc(C(=O)NCC(=O)N3C[C@H](O)[C@@H](O)C3)ccc21 [Example 407, 1-Methyl-2-(6-trifluoromethoxy-benzothiazol-2-ylamino)-1H-benzoimidazole-5-carboxylic acid [2-((3S,4S)-3,4-dihydroxy-pyrrolidin-1-yl)-2-oxo-ethyl]-amide] — lower, 7.73
- Cn1c(Nc2nc3ccc(OC(F)(F)F)cc3s2)nc2cc(C(=O)NCCC3CCCCO3)ccc21 (stereo not drawn) [Example 263, 1-Methyl-2-(6-trifluoromethoxy-benzothiazol-2-ylamino)-1H-benzoimidazole-5-carboxylic acid [2-(tetrahydro-pyran-2-yl)-ethyl]-amide] — higher, 19.9
- Cn1c(Nc2nc3ccc(C(F)(F)F)cc3s2)nc2cc(C(=O)NCCO)ccc21 [Example 27, 1-Methyl-2-(6-trifluoromethyl-benzothiazol-2-ylamino)-1H-benzoimidazole-5-carboxylic acid (2-hydroxy-ethyl)-amide] — higher, 23.2
- CN1CCN(C(=O)CNC(=O)c2ccc3c(c2)nc(Nc2nc4ccc(OC(F)(F)F)cc4s2)n3C)CC1 [Example 137, 1-Methyl-2-(6-trifluoromethoxy-benzothiazol-2-ylamino)-1H-benzimidazole-5-carboxylic acid [2-(4-methyl-piperazin-1-yl)-2-oxo-ethyl]-amide] — lower, 6
- CN1CCN(C(=O)CNC(=O)c2ccc3c(c2)nc(Nc2nc4ccc(Cl)cc4s2)n3C)CC1 [Example 426, 2-(6-Chloro-benzothiazol-2-ylamino)-1-methyl-1H-benzoimidazole-5-carboxylic acid [2-(4-methyl-piperazin-1-yl)-2-oxo-ethyl]-amide] — higher, 25.1
- Cn1c(Nc2nc3ccc(OC(F)(F)F)cc3s2)nc2cc(C(=O)NCC(=O)N3CCC(O)CC3)ccc21 [Example 435, 1-Methyl-2-(6-trifluoromethoxy-benzothiazol-2-ylamino)-1H-benzoimidazole-5-carboxylic acid [2-(4-hydroxy-piperidin-1-yl)-2-oxo-ethyl]-amide] — higher, 30.2
- CCNC(=O)c1ccc2c(c1)nc(Nc1nc3ccc(Cl)cc3s1)n2C [Example 32, 2-(6-Chloro-benzothiazol-2-ylamino)-1-methyl-1H-benzoimidazole-5-carboxylic acid ethylamide] — higher, 12.6
- Cc1ccc2nc(Nc3nc4cc(C(=O)O)ccc4n3C)sc2c1 [Example 120, 1-Methyl-2-(6-methyl-benzothiazol-2-ylamino)-1H-benzimidazole-5-carboxylic acid] — lower, 1.7
- Cn1c(Nc2nc3ccc(OC(F)(F)F)cc3s2)nc2cc(C(=O)NCCC(=O)O)ccc21 [Example 98, 3-{[2-(6-Trifluoromethoxy-benzothiazol-2-ylamino)-1-methyl-1H-benzimidazole-5-carbonyl]-amino}-propionic acid] — higher, 13.8
- Cn1c(Nc2nc3ccc(OC(F)(F)F)cc3s2)nc2cc(C(=O)NCCOCCN)ccc21 [Example 268, 1-Methyl-2-(6-trifluoromethoxy-benzothiazol-2-ylamino)-1H-benzoimidazole-5-carboxylic acid [2-(2-amino-ethoxy)-ethyl]-amide] — higher, 28.4
- COC(=O)c1ccc2c(c1)nc(Nc1nc3cc(OC(F)(F)F)ccc3s1)n2C [Example 99, 1-Methyl-2-(5-trifluoromethoxy-benzothiazol-2-ylamino)-1H-benzoimidazole-5-carboxylic acid methyl ester] — lower, 8.5
- COC(=O)c1ccc2c(c1)nc(Nc1nc3ccc(OC(F)(F)F)cc3s1)n2C [Example 2, 1-Methyl-2-(6-trifluoromethoxy-benzothiazol-2-ylamino)-1H-benzoimidazole-5-carboxylic acid methyl ester] — lower, 6.51
- CCNC(=O)c1cc2nc(Nc3nc4ccc(OC(F)(F)F)cc4s3)n(C)c2cc1OC [Example 64, 6-Methoxy-1-methyl-2-(6-trifluoromethoxy-benzothiazol-2-ylamino)-1H-benzoimidazole-5-carboxylic acid ethylamide] — higher, 18.9
